Experimental data reported in patent US20230011398A1, “COMBINATION THERAPY APPROACH TO ELIMINATE HIV INFECTIONS” (priority 2019, published 2023).

Key:
[1] = test system: HIV-1-infected T cells; assay: Annexin V / DEVD-FITC / p24 cell death assay in T cells with or without HIV-1 infection; assay type: cell-based, human
Procedure: Naïve T cells, activated T cells, CMT or EMT with or without infection with HIV-1 (NL4-3, 1 MOI) were cultured for 4 days in the presence of 30 nM CCL19 and 0.3 ng/ml IL-2 for 4 days to establish latent HIV infection. […] The cells were then incubated with 1 μM FITC-DEVD-FMK (Biovision), followed by staining with APC-Annexin V (Biolegend) and intracellular staining with PE-anti-HIV p24. The cells were analyzed by flow cytometry. The percentage of cell death was calculated by the loss of live cells negative for annexin V and DEVD staining by comparing treated and untreated groups: (untreated—treated)/untreated x 100%.

[2] = test system: CD4+ T cells with or without infection by HIV-1; assay: Western blot of caspases, Bcl-2 family and LC3 after IDB; assay type: cell-based, human
Procedure: Western blot. PBMC CD4^+ T cells with or without infection by HIV-1 cultured for 4 days with CCL19 as in FIG. 1a. The cells were then cultured in the absence or presence of 0.1 μM IDB for 24 h. The cells were lysed in lysis buffer containing 50 mM HEPES, pH 7.5, 150 mM NaCl, 1 mM EDTA, 1% Triton X-100, 1X protease inhibitor mixture (Roche Applied Science) and 10 μM Benzyloxycarbonyl-Val-Ala-Asp (OMe) fluoromethylketone (zVAD-FMK, ENZO Life Sciences). The cell lysates were determined by the Bradford assay (Bio-Rad). Samples were used for SDS-PAGE and Western blot analyses by probing with different antibodies: monoclonal antibodies to caspase-9 (1:1,000, M054-3, clone 5B4) and caspase-7 (1:1,000, M053-3, clone 4G2) from Medical & Biological Laboratories; polyclonal rabbit antibodies to Atg-7 (1:1,000, 2631S), cleaved caspase-9 (1:1,000, 52873s), caspase-3 (1:1,000, 9665s); cleaved caspase-3 (1:1,000, 9501s), caspase-6 (1:1,000, 9762s), Mc1-1 (1:1,000, 5453s), Bcl-2 (1:1,000, 4223s), Bcl-xL (1:1,000, 2762s), Bak (1:1,000, 12105s), Bax (1:1,000, 2772s), LC3 (1:1000, 4108s) from Cell Signaling Technology and monoclonal antibody to β-Actin (1:50,000, sc-47778, clone C4) from Santa Cruz Biotechnology. The blots were them incubated with HRP-conjugated goat anti-Mouse IgG1 (1:50,000, 1070-05, Southern Biotech) or HRP-conjugated goat anti-Rabbit IgG (1:50,000, ab6721, Abcam) and developed using SuperSignal West Dura Extended Duration Substrate (ThermoFisher).

[3] = HIV-1-infected T cells, IDB 24 h

CC1=C[C@]23C(=O)[C@@H](C=C(COC(=O)c4ccccc4)[C@@H](O)[C@]2(O)[C@H]1OC(=O)c1ccccc1)[C@H]1[C@@H](C[C@H]3C)C1(C)C [IDB, ingenol 3,20-dibenzoate]
cell death in HIV-1-infected T cells (Annexin V, cleavage of DEVD) ([1]; 0.1 μM IDB, 48 h): induced cell death in HIV-1-infected T cells
cell death in uninfected cells ([1]; 0.1 μM IDB, 48 h): relatively resistant
caspase-3 activities measured by cleavage of DEVD ([1]; HIV-1-infected CMT, 100 nM IDB 24 h): increased caspase-3 activities
cell death in HIV-1-infected CMT, Annexin V staining ([1]; NL4-3 1 MOI, 100 nM IDB 24 h): induced cell death
expression of anti-apoptotic Bcl-xL and Mcl-1 ([2]; CD4+ T cells not infected with HIV-1, IDB 24 h): increased the expression
activation of caspase-9, caspase-3, caspase-6 and caspase-7 [2, 3]: induced the activation
expression of Bcl-xL and Mcl-1 [2, 3]: induced the expression of Bcl-xL and Mcl-1
expression of anti-apoptotic Bcl-2 ([2]; IDB 24 h): did not change
expression of LC3 ([2]; T cell with or without HIV-1 infections, IDB 24 h): induced the expression of LC3
increase in Bcl-xL expression in HIV-1-infected cells ([2]; compared with uninfected controls, IDB 24 h): greater than in uninfected controls
